Measurements published in ChEMBL document CHEMBL5725365, “Tyrosine kinase inhibitors” (2017).
pIC50: −log10 of the molar value.

Target: Tyrosine-protein kinase BTK (Homo sapiens, UniProt Q06187)
Assay: Enzymatic Activity Assay: A Caliper-based kinase assay (Caliper Life Sciences, Hopkinton, Mass.) was used to measure inhibition of BTK kinase activity of a compound of the present disclosure. Serial dilutions of test compounds were incubated with human recombinant BTK (0.5 nM), ATP (16 μM) and a phosphoacceptor peptide substrate FAM-[…]-NH2(1 μM) at room temperature for 3 h. The reaction was then terminated with EDTA, final concentration 20 mM and the phosphorylated reaction product was quantified on a Caliper Desktop Profiler (Caliper LabChip 3000).

Sequence of Tyrosine-protein kinase BTK (Q06187 whole entry): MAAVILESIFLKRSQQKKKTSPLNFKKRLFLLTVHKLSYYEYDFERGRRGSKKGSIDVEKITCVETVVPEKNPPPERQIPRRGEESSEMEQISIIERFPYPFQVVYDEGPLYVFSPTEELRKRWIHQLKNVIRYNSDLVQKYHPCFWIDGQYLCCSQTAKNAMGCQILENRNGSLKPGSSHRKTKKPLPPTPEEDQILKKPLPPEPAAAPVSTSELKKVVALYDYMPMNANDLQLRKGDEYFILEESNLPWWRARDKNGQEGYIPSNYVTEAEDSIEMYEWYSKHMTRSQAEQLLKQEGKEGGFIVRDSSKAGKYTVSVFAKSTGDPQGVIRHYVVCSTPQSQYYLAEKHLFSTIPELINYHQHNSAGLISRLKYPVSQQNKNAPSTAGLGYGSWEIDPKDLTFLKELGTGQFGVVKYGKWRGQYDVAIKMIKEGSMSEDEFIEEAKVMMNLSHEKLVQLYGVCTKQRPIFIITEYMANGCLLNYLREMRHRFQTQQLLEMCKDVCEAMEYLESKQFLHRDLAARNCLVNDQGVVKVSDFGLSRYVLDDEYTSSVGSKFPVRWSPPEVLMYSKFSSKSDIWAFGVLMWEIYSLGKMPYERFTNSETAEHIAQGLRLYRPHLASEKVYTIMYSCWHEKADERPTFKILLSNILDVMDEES

CC(C)(C=C(C#N)C(=O)N1CCC[C@@H](n2c(=O)n(-c3ccc(Oc4ccccc4)cc3)c3c(N)nccc32)C1)C(=O)N1CCN(C2COC2)CC1
pIC50: 7.62
